# Assay results: patent US20080096967A1, “Formulations for Injection of Catecholic Butanes, Including Ndga Compounds, Into Animals” (priority 2005, published 2008)
# How the values were obtained:
# [1] = Stability of M4N formulations at 4° C. and on centrifugation; assay type: physicochemical
# Protocol: All formulations withstand 4° C. for 24 hr and 5 min. centrifugation at 5000 rpm without forming visible precipitates. The formulation containing 50% PEG 300, 20% HP-β-CD, 12.5 mg/mL M4N stock solution withstands 4° C. for at least 4 months. Dilutions of the same stock made in 1:1 or 1:2 dilutions also withstand 4° C. for at least 4 months.
# [2] = Solubility and room temperature stability of M4N in modified cyclodextrin / PEG formulations (visual inspection); assay type: physicochemical
# Protocol: A 100 mL solution of 40% HP-β-CD for use as a solubilizing agent and/or excipient was made as follows: 65 mL of WFI were placed in a glass beaker containing a stir bar. The beaker was placed on a magnetic plate, and the stir bar was set to stir at medium speed. About forty (40) grams of HP-β-CD were added slowly to the stirring WFI, using a spatula to direct the HP-β-CD to the center of the beaker so as to prevent HP-β-CD crystals from sticking to the beaker wall. The HP-β-CD solution was stirred for about 24 hr or until the HP-β-CD was dissolved completely upon visual inspection. The resulting solution measured about 93 mL. About 7 mL of WFI was added to this resulting solution to obtain 100 mL, producing a final solution of about 40% HP-β-CD. The final solution was stirred for about 1 hr, stored at room temperature, and was protected from light. This method of making the modified cyclodextrin solution may be scaled up or down to obtain the desired volume or concentration. Other concentrations or other modified cyclodextrin solutions may be similarly made, for example, by substituting HP-β-CD with other modified cyclodextrins, adjusted for the appropriate concentrations in the process described above.
# A 10 mL solution of M4N at a concentration of about 10 mg/mL in 40% HP-β-CD was made as follows. About 10 mL of the 40% HP-β-CD solution were added to a glass beaker containing a stir bar. The beaker was placed on a magnetic plate and the stir bar was set to stir at medium speed. About […] of M4N were slowly added to the 40% HP-β-CD in the center of the beaker with the aid of a spatula. The M4N/40% HP-β-CD mixture was stirred for 2 hr or until all M4N was uniformly suspended without any clumps being present. The M4N/40% HP-β-CD mixture was optionally heated at 80° C. for about 30 min. (or longer if a larger volume of solution was desired, for example, 1 hr at 80° C. for 100 mL of the M4N/HP-β-CD mixture), or longer as needed to ensure complete dissolution of M4N. […] The final M4N/40% HP-β-CD solution was stored at room temperature and was kept protected from light. This process may be scaled up or down to obtain the requisite volume or concentration of M4N. Formulations containing M4N in other cyclodextrin solutions may be similarly made, such as, for example, by substituting HP-β-CD in the process described above with other cyclodextrins.
# A 100 mL solution of M4N at a concentration of about 25 mg/mL in PEG 300 was made as follows. About 100 mL of PEG 300 were added to a glass beaker containing a stir bar. The beaker was placed on a magnetic plate and the stir bar was set to stir at medium speed. About 2.5 g of M4N were slowly added to the PEG 300 in the center of the beaker with the aid of a spatula to prevent M4N from sticking to the beaker wall. The M4N/PEG 300 mixture was stirred for 24 hr or until all M4N had dissolved or was uniformly suspended without any clumps being present. The M4N/PEG 300 mixture was optionally heated at about 60° C. for about 30 min. (or longer if a larger volume of solution was desired, for example, 1 hr at 60° C. for 500 mL of the M4N/PEG 300 mixture), or longer as needed to ensure complete dissolution of M4N. […] If crystals formed, the M4N/PEG 300 solution could be heated again at 60° C. for about 1 hr, with stirring, on a hot magnetic plate until all M4N was dissolved back in solution. The final M4N/PEG 300 solution was stored at room temperature and was kept protected from light. This process may be scaled up or down to obtain the requisite volume or concentration of M4N. Formulations containing M4N in other PEGs may be similarly made, such as, for example, by substituting PEG 300 in the process described above with PEG 400 or PEG 400 monolaurate. […]
structure (smiles),measurement,setting,value
"COc1ccc(C[C@@H](C)[C@@H](C)Cc2ccc(OC)c(OC)c2)cc1OC [Formulation M4N, meso-1,4-bis(3,4-dimethoxyphenyl)-2,3-dimethylbutane]",withstand 4° C.,"[1]; 1:1 or 1:2 dilutions of the 50% PEG 300, 20% HP-β-CD, 12.5 mg/mL M4N stock",at least 4 months
same,withstands 4° C.,"[1]; 50% PEG 300, 20% HP-β-CD, 12.5 mg/mL M4N stock solution",at least 4 months
same,Dissolution After Heating at X ° C.,"[2]; 1.50% β-CD, M4N 1 mg/mL, 90°",N at 90°
same,Dissolution After Heating at X ° C.,"[2]; 1.50% β-CD, M4N 10 mg/mL, 90°",N at 90°
same,Stability at Room Temperature,"[2]; 5% HP-β-CD, 12.5% PEG 300 (v/v), M4N 3.13 mg/mL",<7 days
same,Dissolution After Heating at X ° C.,"[2]; 5% HP-β-CD, 12.5% PEG 300 (v/v), M4N 3.13 mg/mL, 60°",Y at 60°
same,Dissolution After Heating at X ° C.,"[2]; 5% γ-CD, M4N 1 mg/mL, 90°",N at 90°
same,Stability at Room Temperature,"[2]; 6.7% HP-β-CD, 16.7% PEG 300 (v/v), M4N 4.17 mg/mL",>7 days
same,Dissolution After Heating at X ° C.,"[2]; 6.7% HP-β-CD, 16.7% PEG 300 (v/v), M4N 4.17 mg/mL, 60°",Y at 60°
same,Stability at Room Temperature,"[2]; 10% HP-β-CD, 25% PEG 300 (v/v), M4N 6.25 mg/mL",>7 days
same,Dissolution After Heating at X ° C.,"[2]; 10% HP-β-CD, 25% PEG 300 (v/v), M4N 6.25 mg/mL, 60°",Y at 60°
same,Dissolution After Heating at X ° C.,"[2]; 10% HP-β-CD, 77% PEG 300 (v/v), M4N 19.3 mg/mL, 60°",Y at 60°
same,Stability at Room Temperature,"[2]; 12.5% HP-β-CD, 50% PEG 300 (v/v), M4N 12.5 mg/mL",<1 days
same,Dissolution After Heating at X ° C.,"[2]; 12.5% HP-β-CD, 50% PEG 300 (v/v), M4N 12.5 mg/mL, 60°",Y at 60°
same,Dissolution After Heating at X ° C.,"[2]; 13% HP-β-CD, 67% PEG 300 (v/v), M4N 16.7 mg/mL, 60°",Y at 60°
same,Stability at Room Temperature,"[2]; 15% HP-β-CD, 50% PEG 300 (v/v), M4N 12.5 mg/mL",<7 days
same,Dissolution After Heating at X ° C.,"[2]; 15% HP-β-CD, 50% PEG 300 (v/v), M4N 12.5 mg/mL, 60°",Y at 60°
same,Dissolution After Heating at X ° C.,"[2]; 15% α-CD, M4N 10 mg/mL, 90°",N at 90°
same,Dissolution After Heating at X ° C.,"[2]; 15% α-CD, M4N 50 mg/mL, 90°",N at 90°
same,Dissolution After Heating at X ° C.,"[2]; 15% α-CD, M4N 100 mg/mL, 90°",N at 90°
same,Stability at Room Temperature,"[2]; 20% HP-β-CD, 50% PEG 300 (v/v), M4N 12.5 mg/mL",>7 days
same,Dissolution After Heating at X ° C.,"[2]; 20% HP-β-CD, 50% PEG 300 (v/v), M4N 12.5 mg/mL, 60°",Y at 60°
same,Stability at Room Temperature,"[2]; 20% HP-β-CD, M4N 1 mg/mL",>7 days
same,Dissolution After Heating at X ° C.,"[2]; 20% HP-β-CD, M4N 1 mg/mL, 90°",Y at 90°
same,Dissolution After Heating at X ° C.,"[2]; 20% HP-β-CD, M4N 10 mg/mL, 90°",N at 90°
same,Stability at Room Temperature,"[2]; 23% HP-β-CD, 43 PEG 300 (v/v), M4N 12.9 mg/mL",>7 days
same,Dissolution After Heating at X ° C.,"[2]; 23% HP-β-CD, 43 PEG 300 (v/v), M4N 12.9 mg/mL, 60°",Y at 60°
same,Stability at Room Temperature,"[2]; 27% HP-β-CD, 33% PEG 300 (v/v), M4N 13.3 mg/mL",>7 days
same,Dissolution After Heating at X ° C.,"[2]; 27% HP-β-CD, 33% PEG 300 (v/v), M4N 13.3 mg/mL, 60°",Y at 60°
same,Stability at Room Temperature,"[2]; 27% HP-β-CD, 33% PEG 400 (v/v), M4N 13.3 mg/mL",>7 days
same,Stability at Room Temperature,"[2]; 30% HP-β-CD, 25% PEG 400 (v/v), M4N 12.5 mg/mL",>7 days
same,Dissolution After Heating at X ° C.,"[2]; 30% HP-β-CD, 25% PEG 400 (v/v), M4N 12.5 mg/mL, 60°",Y at 60°
same,Stability at Room Temperature,"[2]; 30% HP-β-CD, M4N 1 mg/mL",>7 days
same,Dissolution After Heating at X ° C.,"[2]; 30% HP-β-CD, M4N 1 mg/mL, 90°",Y at 90°
same,Stability at Room Temperature,"[2]; 30% HP-β-CD, M4N 10 mg/mL",<3 days
same,Dissolution After Heating at X ° C.,"[2]; 30% HP-β-CD, M4N 10 mg/mL, 90°",Y at 90°
same,Dissolution After Heating at X ° C.,"[2]; 30% HP-β-CD, M4N 20 mg/mL, 90°",N at 90°
same,Dissolution After Heating at X ° C.,"[2]; 30% HP-β-CD, M4N 50 mg/mL, 90°",N at 90°
same,Dissolution After Heating at X ° C.,"[2]; 30% HP-β-CD, M4N 100 mg/mL, 90°",N at 90°
same,Stability at Room Temperature,"[2]; 32% HP-β-CD, 20% PEG 400 (v/v), M4N 10 mg/mL",>7 days
same,Dissolution After Heating at X ° C.,"[2]; 32% HP-β-CD, 20% PEG 400 (v/v), M4N 10 mg/mL, 60°",Y at 60°
same,Dissolution After Heating at X ° C.,"[2]; 40% HP-β-CD, 1% PVP (w/v), M4N 1 mg/mL",N
same,Dissolution After Heating at X ° C.,"[2]; 40% HP-β-CD, 1% PVP (w/v), M4N 10 mg/mL",N
same,Dissolution After Heating at X ° C.,"[2]; 40% HP-β-CD, 2.5% PG (v/v), M4N 1 mg/mL, 80°",N at 80°
same,Dissolution After Heating at X ° C.,"[2]; 40% HP-β-CD, 2.5% PG (v/v), M4N 10 mg/mL, 80°",N at 80°
same,Stability at Room Temperature,"[2]; 40% HP-β-CD, M4N 1 mg/mL",>7 days
same,Dissolution After Heating at X ° C.,"[2]; 40% HP-β-CD, M4N 1 mg/mL, 80°",Y at 80°
same,Stability at Room Temperature,"[2]; 40% HP-β-CD, M4N 10 mg/mL",>7 days
same,Dissolution After Heating at X ° C.,"[2]; 40% HP-β-CD, M4N 10 mg/mL, 80°",Y at 80°
same,Dissolution After Heating at X ° C.,"[2]; 40% HP-β-CD, M4N 12 mg/mL, 80°",N at 80°
same,Dissolution After Heating at X ° C.,"[2]; 40% HP-β-CD, M4N 14 mg/mL, 80°",N at 80°
same,Dissolution After Heating at X ° C.,"[2]; 40% HP-β-CD, M4N 16 mg/mL, 80°",N at 80°
same,Dissolution After Heating at X ° C.,"[2]; 40% HP-β-CD, M4N 20 mg/mL, 80°",N at 80°
same,Dissolution After Heating at X ° C.,"[2]; 40% HP-β-CD, M4N 50 mg/mL, 80°",N at 80°
same,Dissolution After Heating at X ° C.,"[2]; 40% HP-β-CD, M4N 100 mg/mL, 80°",N at 80°
same,Stability at Room Temperature,"[2]; 50% HP-β-CD in saline, M4N 10 mg/mL",>7 days
same,Dissolution After Heating at X ° C.,"[2]; 50% HP-β-CD in saline, M4N 10 mg/mL, 90°",Y at 90°
same,Stability at Room Temperature,"[2]; 50% HP-β-CD, 1.25% PVP (w/v), M4N 1 mg/mL",<3 days
same,Dissolution After Heating at X ° C.,"[2]; 50% HP-β-CD, 1.25% PVP (w/v), M4N 1 mg/mL, 90°",Y at 90°
same,Dissolution After Heating at X ° C.,"[2]; 50% HP-β-CD, 1.25% PVP (w/v), M4N 10 mg/mL",N
same,Dissolution After Heating at X ° C.,"[2]; 50% HP-β-CD, 1.25% PVP (w/v), M4N 50 mg/mL",N
same,Stability at Room Temperature,"[2]; 50% HP-β-CD, M4N 1 mg/mL",>7 days
same,Dissolution After Heating at X ° C.,"[2]; 50% HP-β-CD, M4N 1 mg/mL, 90°",Y at 90°
same,Stability at Room Temperature,"[2]; 50% HP-β-CD, M4N 10 mg/mL",>7 days
same,Dissolution After Heating at X ° C.,"[2]; 50% HP-β-CD, M4N 10 mg/mL, 90°",Y at 90°
same,Dissolution After Heating at X ° C.,"[2]; 50% HP-β-CD, M4N 20 mg/mL, 90°",N at 90°
same,Dissolution After Heating at X ° C.,"[2]; 50% HP-β-CD, M4N 50 mg/mL, 90°",N at 90°
same,Dissolution After Heating at X ° C.,"[2]; 50% HP-β-CD, M4N 100 mg/mL, 90°",N at 90°
same,remained in solution after cooling,[2]; M4N 1 mg/mL and 10 mg/mL in 40% HP-β-CD,greater than 7 days
